From ChEMBL document CHEMBL1201862, “PubChem BioAssay data set” (2004)
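Protocol summary: plate cells (96-well), add compound at 5 concentrations, incubate 48 h, interpolate endpoints linearly. GI50 = concentration required for 50% inhibition of growth.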 Active and inactive are the calls of the source. Rule as the data show it: active = GI50 up to about 1.1 µM and inactive = higher. Non-standard residues stand in square brackets, D forms with d. Residues, ends and D or L forms follow the SMILES beside them. ξ: configuration not given here. *: point of attachment. NMeF = CN[C@@H](Cc1ccccc1)C(=O)O; ξNMeV = CNC(C(=O)O)C(C)C; Boc = CC(C)(C)OC(=O)*; OBn = c1ccc(CO*)cc1

How the values were obtained:
Assay in all cases: DTP human tumour cell line panel, 48 h
LXFL 529 = tested on: LXFL 529
SNB-78 = tested on: SNB-78
XF498 = tested on: XF498
DMS-273 = tested on: DMS-273
DMS-114 = tested on: DMS-114
HOP-18 = tested on: HOP-18
DLD-1 = tested on: DLD-1
M19-MEL = tested on: M19-MEL
RXF 631 = tested on: RXF 631

Measured: GI50

Sc1nnc(-c2cccnc2)[nH]1
inactive: LXFL 529 > 100 µM | SNB-78 > 100 µM | XF498 > 100 µM | DMS-273 > 100 µM | DMS-114 > 100 µM | HOP-18 > 100 µM | DLD-1 > 100 µM

COC(=O)C(C(=O)C(=O)Nc1ccc([N+](=O)[O-])cc1)c1nc2ccc([N+](=O)[O-])cc2nc1O (stereo not given)
inactive: LXFL 529 43.5 µM | SNB-78 > 100 µM | DMS-273 > 100 µM | DMS-114 68.2 µM | M19-MEL > 100 µM | RXF 631 > 100 µM | HOP-18 > 100 µM | DLD-1 > 100 µM

Cc1ccc(N2C(=O)/C(=C3\Sc4c(nc(C)[nH]c4=O)N3c3ccccc3)SC2=S)cc1
inactive: LXFL 529 18.5 µM | SNB-78 39 µM | XF498 20.9 µM | DMS-273 34.6 µM | DMS-114 72.6 µM | M19-MEL 63.5 µM | DLD-1 91.2 µM

COC(=O)C1=CC2CC1C(S(=O)(=O)c1ccccc1)C2S(=O)(=O)c1ccccc1 (stereo not given)
inactive: LXFL 529 5.81 µM | DMS-273 10.5 µM | DMS-114 15.5 µM | M19-MEL 18.3 µM | RXF 631 13.5 µM | HOP-18 16.7 µM | DLD-1 14.5 µM

CCOC(=O)/C(=C/c1cccc(OC)c1)N(CC)CC
inactive: LXFL 529 > 100 µM | SNB-78 > 100 µM | XF498 > 100 µM | DMS-273 > 100 µM | DMS-114 > 100 µM | M19-MEL > 100 µM

C=CCCCCCC(O)C(O)C/C=C\C/C=C\CC (stereo not given)
inactive: LXFL 529 > 18.8 µM | SNB-78 > 18.8 µM | XF498 > 18.8 µM | DMS-273 > 18.8 µM | DMS-114 > 16.8 µM | HOP-18 > 18.8 µM | DLD-1 > 18.8 µM

NC(=O)CCC(Nc1c2ccccc2nc2ccccc12)C(=O)O (stereo not given)
inactive: LXFL 529 > 100 µM | DMS-273 > 100 µM | M19-MEL > 100 µM | RXF 631 77.3 µM | DLD-1 88.3 µM

COc1cccc2c(SCC(=O)Nc3ccccc3-c3ccccc3NC(=O)CSc3c4ccccc4nc4c(OC)cccc34)c3ccccc3nc12
inactive: SNB-78 > 100 µM | XF498 76.6 µM | DMS-273 71.3 µM | DMS-114 29.1 µM | RXF 631 47.6 µM | DLD-1 > 100 µM

CCOC(=O)c1cnc2[nH]c(=O)c3ccccc3n2c1=O
inactive: LXFL 529 > 100 µM | SNB-78 > 100 µM | XF498 > 100 µM | DMS-273 > 100 µM | M19-MEL > 100 µM | RXF 631 > 100 µM | HOP-18 > 100 µM | DLD-1 > 100 µM

COC1=C(NC(C)=O)C(=O)c2nc3n(c2C1=O)CCC3
inactive: SNB-78 13 µM | XF498 19.1 µM | DMS-273 18.7 µM | DMS-114 12.2 µM | HOP-18 18.9 µM | DLD-1 15 µM

NC1=NS(=O)(=O)Nc2nc(-c3ccc(Cl)cc3)c(-c3ccc(Cl)cc3)nc21
inactive: LXFL 529 34.9 µM | SNB-78 > 100 µM | XF498 69.3 µM | DMS-273 > 100 µM | DMS-114 32.1 µM | M19-MEL > 100 µM | RXF 631 > 100 µM | HOP-18 > 100 µM | DLD-1 > 100 µM

Nc1ccc(C(=O)O)c2[nH]c3ccccc3c(=O)c12
inactive: LXFL 529 > 100 µM | SNB-78 > 100 µM | DMS-273 > 100 µM | DMS-114 > 100 µM | M19-MEL > 100 µM | HOP-18 > 100 µM | DLD-1 > 100 µM

CC1=C(C(=O)Nc2c(C)cccc2C)C(c2ccc3c(c2)OCO3)C(C(=O)Nc2c(C)cccc2C)=C(C)N1
inactive: LXFL 529 18 µM | SNB-78 17.6 µM | DMS-114 16.6 µM | RXF 631 16.7 µM | HOP-18 18.9 µM | DLD-1 19.3 µM

CCCCCC(CN1CCOCC1)C(=O)/C=C/c1ccccc1 (stereo not given)
inactive: SNB-78 6.9 µM | XF498 1.72 µM | DMS-273 2.31 µM | DMS-114 1.79 µM | M19-MEL 2.41 µM

COCOCC[C@@H]1CC=CC(NC(=O)OCc2ccccc2)C1/C=C/C(=O)CCC1OCCO1 (stereo not given in full)
inactive: LXFL 529 22.4 µM | SNB-78 48.1 µM | XF498 34.4 µM | DMS-273 23 µM | DMS-114 29.9 µM | M19-MEL 19.1 µM | HOP-18 34.3 µM | DLD-1 17.1 µM

CCN(CC)CCCCC1CCN(CC(=O)N2c3ccccc3NC(=O)c3ccccc32)CC1
inactive: LXFL 529 > 100 µM | SNB-78 > 100 µM | XF498 > 100 µM | DMS-273 > 100 µM | DMS-114 > 100 µM | M19-MEL > 100 µM | RXF 631 > 100 µM | DLD-1 > 100 µM

[N-]=[N+]=NC1C(Cl)C(=O)NC(=O)N1[C@H]1C[C@H](O)[C@@H](CO)O1 (stereo not given in full)
inactive: LXFL 529 > 100 µM | SNB-78 > 100 µM | XF498 > 100 µM | DMS-273 > 100 µM | DMS-114 > 100 µM | RXF 631 > 100 µM | DLD-1 > 100 µM

CC(C)C(C(=O)N1CCC[C@@H]1C(=O)OCc1ccccc1)N(C)C(=O)C(C(C)C)N(C)C(=O)[C@H](Cc1ccccc1)N(C)C(=O)[C@H](NC(=O)OC(C)(C)C)C(C)C (stereo not given in full) (Boc-[dV][NMeF][ξNMeV][ξNMeV][dP]-OBn)
inactive: LXFL 529 8.81 µM | SNB-78 > 100 µM | XF498 > 68.5 µM | DMS-273 42.9 µM | DMS-114 8.57 µM | M19-MEL > 48.5 µM | HOP-18 > 100 µM | DLD-1 > 100 µM
